Patent US20040137472A1, “Methods and compositions for modification of splicing of pre-mRNA” (priority 2002, published 2004)

Experiments:
Assay type in all cases: cell-based, human
IVS2-705U EGFP cells [1] = assay: EGFP fluorescence screen by fluorescence microscopy, IVS2-705U EGFP HeLa cells; design: key: Compounds causing moderate to high levels of fluorescence with no autofluorescence of the compound itself are indicated by a (+) sign; A (+/−) indicates compounds causing faint levels of fluorescence or compounds that have some autofluorescence in addition to causing the cells to fluoresce; A (−) sign indicates that the compounds did not cause detectable levels of fluorescence; conditions: 50 μM compound, 24 hours, detected by eye
Method: The screen was carried out using HeLa cell lines stably transfected with an EGFP (enhanced green fluorescent protein) construct. This construct contains the EGFP cDNA disrupted by intron 2 of the β-globin gene, containing thalassemic mutations (FIG. 1), and was under the control of the CMV promoter. Two different cell lines were generated with this construct, one with a mutation at position 654 (IVS2-654 EGFP) and another with a mutation at position 705 (IVS2-705U EGFP).
For both constructs, disruption of EGFP with mutated intron 2 results in a lack of production of a functional EGFP protein. When correct splicing is restored to a cell, intron 2 is excised and functional EGFP protein is generated (Sazani (2001) Nucl. Acids Res. 29:3965-3974).
Cells were plated in black well, clear bottom 96-well plates at 13×10^4 cells/ml, 100 μl per well. The rows on the ends of the plate (rows 1 and 12) were control rows and the remaining rows were treated with compounds. In the control rows, positive control EGFP cells were alternated with untreated cells serving as negative controls. […]
Twenty-four hours after treatment, the medium was removed and the cells were washed 2 times in 150 μl 1× PBS. […] Cells were then examined on an Olympus inverted fluorescence microscope at 10× or 20× using a FITC filter. Fluorescence was detected by eye. Attempts to utilize a fluorescence plate reader failed as the plate reader was not sensitive enough to detect the expected low levels of EGFP fluorescence.
The criteria used to designate a compound as a positive were as follows. […] Additionally, the fluorescence had to be mostly uniform throughout all of the cells. This criterion was complicated by the fact that many of the compounds had varying levels of autofluorescence, and therefore were difficult to distinguish from those that caused cellular fluorescence. […]
The IVS2-705U and IVS2-654 EGFP cell lines were treated a second time with the 132 positive compounds and analyzed on a fluorescence microscope. […]

IVS2-705 β-globin cells = assay: RT-PCR analysis of splicing correction, IVS2-705 β-globin cells; design: key: Compounds causing correction by RT-PCR. are indicated by a (+) sign; conditions: 50 μM compound
Source text: β-globin cell lines were obtained by stable transfection of HeLa cells with the human β-globin gene carrying thalassemic mutations at either IVS2-654 or IVS2-705. The cloned genes were under the control of the immediate early cytomegalovirus promoter (Sierakowska, et al., (1996) Proc. Natl. Acad. Sci. USA 93:12840-12844). The IVS2-654 EGFP cell line is well known in the art (Sazani (2001) Nucl. Acids Res. 29:3965-3974). The IVS2-705U EGFP cell line was made in the same manner using a different plasmid. HeLa cells were grown in SMEM with 5% horse serum, 5% fetal calf serum, 1% L-glutamine and 1% gentamicin/kanamycin.
(§1) A RT-PCR-based assay was performed to determine if the fluorescence observed on the EGFP cells was a result of the compounds shifting splicing. […] Therefore, primers located in exons 2 and 3 are used to PCR amplify the products, and the size difference is detected by running the products on an acrylamide gel.
After the IVS2-705U and IVS2-654 EGFP cells were re-treated with positive compounds and examined on the microscope, total RNA was isolated using TRI-REAGENT® (Molecular Research Center, Inc., Cincinnati, Ohio). A total of 200 ng of RNA was analyzed by reverse transcription polymerase chain reaction (RT-PCR) using rTth DNA polymerase (Perkin-Elmer, Boston, Mass.) according to manufacturer's instructions. […]

IVS2-705U EGFP cells [2] = assay: RT-PCR analysis of splicing correction, IVS2-705U EGFP cells; design: key: Compounds causing correction by RT-PCR. are indicated by a (+) sign; conditions: 50 μM compound
Method: as §1
After the IVS2-705U and IVS2-654 EGFP cells were re-treated with positive compounds and examined on the microscope, total RNA was isolated using TRI-REAGENT® (Molecular Research Center, Inc., Cincinnati, Ohio). A total of 200 ng of RNA was analyzed by reverse transcription polymerase chain reaction (RT-PCR) using rTth DNA polymerase (Perkin-Elmer, Boston, Mass.) according to manufacturer's instructions. The reverse transcription step was carried out at 70° C. for 15 minutes. The PCR step included 1 cycle, 95° C., 3 minutes: 18 cycles. 95° C., 1 minute, 65° C., 1 minute. For β-globin mRNA amplification, the reverse primer spanned positions 6-28 of exon 3 and the forward primer spanned positions 21-43 of exon 2 of the human β-globin gene. […]
FIG. 3 provides an example of a polyacrylamide gel with RT-PCR products from EGFP cells treated with several positive compounds. The amount of correction was determined by comparing the ratio of the aberrant band and the correct band.

Compound | 705U EGFP Fluorescence (IVS2-705U EGFP cells [1]) | 705 β-globin RT-PCR (IVS2-705 β-globin cells) | 705U EGFP RT-PCR (IVS2-705U EGFP cells [2])
COc1ccc(CCN(C)Cc2cc(OC)c(OC)cc2Br)cc1OC [Compound A5] | +/− |  | 
CC(C)(C)c1ccc(C(=O)NNC(=O)Cc2ccc(-c3ccccc3)cc2)cc1 [Compound E11] | − | + | +
CCOc1cccc(CN2CCN(c3ccc(F)cc3)CC2)c1O [AA11] | − | + | 
